Values quoted from earlier work, collected in patent US20220331342A1, “TREATMENT OF TRAUMATIC ENCEPHALOPATHY BY FIBROBLASTS AND THERAPEUTIC ADJUVANTS” (FIGENE, LLC, priority 2019, published 2022).

Legend:
SOD1 mutant mice = conditions: single therapy
[1] = system: mixed spinal cord (SC) cultures; conditions: excitotoxins

Row | Compound | neuronal survival on treatment with MAPK inhibitors [1] | further results
1 | Nc1nc2ccc(OC(F)(F)F)cc2s1 [Riluzole, riluzole] | – | onset of disease (SOD1 mutant mice): without affecting
2 | COc1cccc(-c2cc(=O)c3ccccc3o2)c1N [PD98059] | not | –
3 | C[S+]([O-])c1ccc(-c2nc(-c3ccncc3)c(-c3ccc(F)cc3)[nH]2)cc1 (stereo not shown) [SB203580] | increased neuronal survival | –
4 | CN(C)c1ccc(O)c2c1C[C@H]1C[C@H]3[C@H](N(C)C)C(O)=C(C(N)=O)C(=O)[C@@]3(O)C(O)=C1C2=O [Minocycline, minocycline] | – | first-pass metabolism when absorbed from the human gastrointestinal tract: substantial first-pass metabolism
